Results as given in US12084411B2, “Hinokitiol analogues, methods of preparing and pharmaceutical compositions thereof” (The Board of Trustees of the University of Illinois, priority 2018, dated 2024).

Experiments:
[1] = Iron (II) binding affinity, ferrozine competition assay
Protocol: Specifically, the association constant for iron (II) was determined by a ferrozine competition assay (KA of ferrozine=3.65×10^15) (60). FeCl2 (25 μM) was pre-mixed with ferrozine (75 μM) in a 25 mM MES/Tris buffer at pH=7.0 containing 62.5 mM sodium ascorbate. Then increasing concentrations of small molecule (from 40X stocks in DMSO) were added to the indicated final concentrations. The solutions were allowed to equilibrate for 24 hours before reading of the absorbance at 562 nm. […] The system was allowed to equilibrate overnight, and the absorbance corresponding to the Fe(chelator)3 complex was determined. The EC50 values for each chelator were calculated by a nonlinear curve fit (Hill1) on OriginPro by plotting the absorbance vs. concentration of titrant, and the KA for each complex was determined from the equation: KA, ligand=(KA, competitor*[EC50])/[ligand] where the ligand is the molecule originally bound to iron, and the competitor is the competing chelator.

[2] = tested on: Mfrn1-deficient zebrafish; assay: Hemoglobinization in Mfrn1-deficient zebrafish; type: in vivo, Danio rerio
[3] = WST-8 toxicity in Caco-2 cells; conditions: human
Protocol: Determination of small molecule-mediated toxicity in Caco-2, MEL, and/or J774 cells was performed according to manufacturer instructions using a WST-8 kit (Cayman Chemical 10010199) similar to previously reported (76) using a 1000× stock of the indicated small molecule in DMSO to give the indicated final concentration.

[4] = Hinokitiol binding selectivity by ICP-MS; conditions: for Extracted Metal 1:1 Hino:Metals: 1 mM Hino; for Extracted Metal 1:1 Hino:Metals / Extracted Metal 10:1 Hino:Metals: 1 mM of each metal; for Extracted Metal 10:1 Hino:Metals: 60 mM Hino
Protocol: The binding selectivity for hinokitiol with multiple divalent metals was determined similar to previously described (32). […] The colored solution was allowed to incubate for 4 hours at room temperature. The solution was diluted in buffer, and extracted (×3) using 1:1 Hexanes:Ethyl Acetate. […] Control experiments were performed similar to those described above but in the absence of hinokitiol. No metal was detected in the organic layer by ICP-MS. Control experiments were also performed similar to those described above but using 60 mM hinokitiol. Metal content after extraction was compared to the initial metal content in the aqueous solution before extraction, and it was determined that the metal:hinokitiol complexes are extracted into the organic layer.

shDMT1 Caco-2 monolayers [5] = assay: Iron-related protein and mRNA levels in shDMT1 Caco-2 monolayers; type: cell-based, Human; conditions: hinokitiol up to 5 μM, 25 μM FeCl3, 4 hours
Protocol: The threshold cycle values were normalized to internal control actin using primers against Fpn1 (Origene HB210988) and Fth1 (Origene HP205786) using the Pfaff1 Method and were then normalized to shDMT1 levels in the absence of hinokitiol. Caco-2 monolayers, differentiated MEL cells, or J774 cells underwent treatment as described in rescue experiments before lysis with RIPA buffer (Thermo 89901) containing protease inhibitors (Thermo 88266). Protein concentrations were determined by a BCA kit (Thermo 23225) and diluted to 2 mg/mL in the same RIPA buffer. […] Blots were thoroughly rinsed with TBST and imaged after addition of Femto Chemluminescence solution according to manufacturer instructions (Thermo Fisher 34095). For results found in FIG. 19E, protein lysate was isolated after treatment with 500 nM FeCl3 as described below. For results found in FIG. 22A, Caco-2 monolayers were treated with 25 μM FeCl3 and 0, 0.5, 1, 3, 5, 10, 25, or 50 μM hinokitiol as described below. […] Experiments for the translational and transcriptional regulated changes in endogenous proteins upon addition of increasing hinokitiol concentrations (FIG. 5F-J, FIG. 21, and FIG. 22A-L) used 25 μM of non-radioactive FeCl3 and the indicated concentration of hinokitiol (from a 1000X stock in DMSO).

fet3Δarn1-4Δ yeast = assay: Growth rescue of yeast missing all known siderophore transporters on agar plates; type: cell-based, Saccharomyces cerevisiae; conditions: 10 μM hinokitiol, 10 μM FeCl3
Protocol: MES/Tris buffer at pH=7.0 containing 2% agarose gel, 10 μM FeCl3, and 10 μM hinokitiol (from 40X stock in DMSO). […] Yeast were grown overnight in YPD media and diluted to an optical density at 600 nm (OD600) of 1.0 in low iron SD media before 10-fold serial dilution and inoculation of these yeast suspensions (10 μL per dot) onto the low iron SD-agar plates described above containing either DMSO vehicle or hinokitiol (10 μM from 40X DMSO stock).

fet3Δftr1Δ yeast = assay: Sustainability assay; type: cell-based, Saccharomyces cerevisiae; conditions: 10 μM hinokitiol, 10 μM FeCl3
Protocol: Sustainable hinokitiol-promoted growth restoration of fet3Δftr1Δ yeast was performed similar to previously reported (20) by inoculation of hinokitiol-rescued yeast from low iron SD-agar plates containing 10 μM hinokitiol and 10 μM FeCl3 into low iron SD liquid media containing 10 μM hinokitiol and 10 μM FeCl3, then streaking of the yeast suspension (diluted to OD600 of 0.1) onto agar plates. This process was repeated for >100 days. Continued reliance of fet3Δftr1Δ yeast growth on hinokitiol was observed, as removal of hinokitiol from the SD-agar plates led to no fet3Δftr1Δ yeast cell growth.

ferritin = molecular target: T1, ferritin (Homo sapiens, UniProt P02792+P02794); assay: Removal of 55Fe from ferritin; type: biochemical; conditions: buffered solution, 2.5 ng ferritin/mL
T1 construct: endogenous in cells; host or cells: wild type Caco-2 monolayers (human, ATCC HTB-37); immunoprecipitated with anti-FTL1 on Protein G PLUS-Agarose beads
T1 sequence (P02792 2-175 limits assumed): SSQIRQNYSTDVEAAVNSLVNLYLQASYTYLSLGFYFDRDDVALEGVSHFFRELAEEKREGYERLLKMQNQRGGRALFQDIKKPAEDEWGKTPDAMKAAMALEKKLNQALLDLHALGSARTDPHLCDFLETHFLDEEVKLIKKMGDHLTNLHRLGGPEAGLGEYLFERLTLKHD
T1 sequence (P02794 whole entry): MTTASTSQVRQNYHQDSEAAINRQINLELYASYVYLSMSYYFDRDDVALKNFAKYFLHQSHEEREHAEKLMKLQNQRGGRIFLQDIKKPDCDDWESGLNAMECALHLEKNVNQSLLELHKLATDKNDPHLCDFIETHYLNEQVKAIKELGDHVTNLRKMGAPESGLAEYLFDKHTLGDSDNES
Protocol: The immunoprecipitated ferritin was diluted to 2.5 ng ferritin/mL (determined by ELISA as described below) in 50 mM MES/Tris buffer at pH=7.0, and increasing concentrations of hinokitiol were added (from 1000X stock in DMSO) to give the final indicated concentrations. The suspension was mixed at room temperature for 2 hours.

shDMT1 Caco-2 monolayers [6] = assay: Imaging of cytosolic iron with calcein green in Caco-2 monolayers; type: cell-based, Human; conditions: 25 μM FeCl3, 1 hour
Protocol: Temporal live cell imaging of labile iron levels in shDMT1 Caco-2 monolayers was performed after staining of Caco-2 monolayers with calcein green-AM (5 μM) in the apical and basolateral liquid for 30 minutes in pH=7.4 DMEM. […] Final volume administered was 1.5 mL/kg for each mouse, correcting for individual body weight. […] Mice were humanely sacrificed by isoflurane overdose after 6 hours and blood was collected by cardiac puncture. Radioactivity was quantified by gamma counting and calculated as the percentage of gavaged dose (±SEM). Experiments were performed with 4 genotyped-matched mice/day; preliminary analysis determined there were no gender effects on uptake of ^59Fe after intragastric gavage; mixed genders were used in the experiments shown.

What does the source list for `CC(C)c1cccc(=O)c(O)c1` [hinokitiol]?
KA for iron (II) ([1]; pH 7.0): 5.1×10^15; KA for iron (II) ([1]; pH 7.0, listed as Hinokitiol): 5.1 × 10^15; hemoglobinization and GFP-positive erythrocytes ([2]; Mfrn1-deficient morphant zebrafish, forty-eight hours): restored hemoglobinization and the number of GFP-positive erythrocytes; anemic phenotype ([2]; embryos from heterozygous cross of +/frs fish): rescued the anemic phenotype; EC90 [3]: > 100 µM; Cu^II competitively bound relative to Fe^II ([4]; 1:1 Hino:Metals): 10 fold; Extracted Metal 1:1 Hino:Metals ([4]; Co^II): 0.001 ± 0.000 µmol; Extracted Metal 10:1 Hino:Metals ([4]; Co^II): 41 ± 0.3 µmol; Extracted Metal 1:1 Hino:Metals ([4]; Cu^II): 45.15 ± 6.46 µmol; Extracted Metal 10:1 Hino:Metals ([4]; Cu^II): 46 ± 0.2 µmol; Extracted Metal 1:1 Hino:Metals ([4]; Fe^II): 4.80 ± 0.61 µmol; Extracted Metal 10:1 Hino:Metals ([4]; Fe^II): 46 ± 0.4 µmol; Extracted Metal 1:1 Hino:Metals ([4]; Mn^II): 0.0003 ± 0.0001 µmol; Extracted Metal 10:1 Hino:Metals ([4]; Mn^II): 37 ± 0.8 µmol; Extracted Metal 10:1 Hino:Metals ([4]; Ni^II): 35 ± 0.3 µmol; Extracted Metal 1:1 Hino:Metals ([4]; Zn^II): 0.0015 ± 0.0006 µmol; Extracted Metal 10:1 Hino:Metals ([4]; Zn^II): 38 ± 0.2 µmol; Fpn1 mRNA and protein levels (shDMT1 Caco-2 monolayers [5]): decreased; Hif1α and Hif2α levels (shDMT1 Caco-2 monolayers [5]): similarly decreased; IRP2 protein levels (shDMT1 Caco-2 monolayers [5]): decreased; TfR1 (3′-IRE) protein levels (shDMT1 Caco-2 monolayers [5]): decreased; ferritin subunits (5′-IREs) protein levels (shDMT1 Caco-2 monolayers [5]): increased; growth restoration of fet3Δarn1-4Δ yeast (fet3Δarn1-4Δ yeast): restores growth; time over which growth restoration is sustained (fet3Δftr1Δ yeast): > 100 days; excess of hinokitiol relative to ferritin needed to remove iron (ferritin): > 1,000,000 fold; cytosolic labile iron (calcein green) (shDMT1 Caco-2 monolayers [6]): increased labile iron up to 5 μM
